The target of this assay is T1, Human insulin (HI) amyloid fibrillation (Homo sapiens, UniProt P01308).
T1 construct: Insulin is a covalent dimer of two polypeptide chains (chain A and chain B) having 21 and 30 amino acid residues, respectively
As to the kind of experiment: ThT fluorescence assay of insulin fibrillation. Type of assay: biochemical. To be noted: for IC50: 3-parameter dose response fit of normalized ThT intensity at 483 nm vs log [peptide], insulin incubated at 60°C for 72 h, 50 mM acetate buffer pH 2.0, peptide 0-750 μM, triplicates, read-out: IC50 against insulin aggregation; for percent inhibition of aggregation (ThT fluorescence): insulin incubated at 60°C for 72 h with peptide (Supplementary Figure S2), concentration not given. As to the method: Stock solution of insulin was prepared by dissolving insulin lyophilized powder in 50 mM acetate buffer, pH 2.0, and insulin concentration was determined by measuring absorbance at 276 nm, with the extinction coefficients of […] for 1 mg/ml. Fibrils were prepared by incubating insulin solution at 60°C for 72 h.
ThT stock solution was prepared by dissolving ThT in double distilled water, and the resulting solution was passed through a 0.2 micron millipore filter. The concentration of ThT was determined by measuring absorbance at 412 nm with a molar extinction coefficient of 36,600 M^−1cm^−1. ThT fluorescence assay was carried out on Shimadzu fluorescence spectrophotometer (RF-5301 PC). Insulin samples were incubated with or without peptides; from each set, samples were withdrawn at definite time intervals and mixed with ThT to have the final protein and dye concentration of 20 μM. The ThT was excited at 440 nm, and fluorescence spectra were recorded from 460 to 650 nm. Buffer (pH 2.0) was used for dilution, and spectra were corrected for the respective blanks. All measurements were performed in triplicates. All curves were fitted as described previously (Chaturvedi et al., [2015]).

What is called IC50 is the concentration needed to halve the response being measured.

Residues, ends and D or L forms follow the SMILES beside them.

T1 sequence (P01308 25-54 limits assumed): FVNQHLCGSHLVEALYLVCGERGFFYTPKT
T1 sequence (P01308 90-110 limits assumed): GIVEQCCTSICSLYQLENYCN

As to `CC[C@H](C)[C@H](NC(=O)[C@@H](N)C(C)C)C(=O)N[C@@H](Cc1ccccc1)C(=O)N[C@@H](Cc1ccc(O)cc1)C(=O)N[C@H](C(=O)O)[C@@H](C)O` [Peptide P4, Val-Ile-Phe-Tyr-Thr] (H-VIFYT-OH), the IC50 stood at 278 µM and the “percent inhibition of aggregation (ThT fluorescence)” value amounted to 82%.
Consider `CC(C)[C@H](N)C(=O)N[C@H](C(=O)N[C@H](C(=O)N[C@H](C(=O)N[C@H](C(=O)O)C(C)C)C(C)C)C(C)C)C(C)C` [Peptide P5, Val-Val-Val-Val-Val] (H-VVVVV-OH), for which the half-maximal inhibitory concentration (IC50) was determined as 446 µM and the “percent inhibition of aggregation (ThT fluorescence)” value amounted to 56%.

Values taken from paper PMC6085999, “Elucidating the Inhibitory Potential of Designed Peptides Against Amyloid Fibrillation and Amyloid Associated Cytotoxicity” (Frontiers in Chemistry, 2018).
